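Five compound concentrations were applied to cells in 96-well plates for 48 hours; endpoints were derived by simple linear interpolation of the resulting dose-response curve. TGI marks complete inhibition of growth.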
What was measured:
Assay in all cases: growth of human tumour cells (NCI), 48 h
SR leukemia = system: SR leukemia
SK-MEL-2 melanoma = system: SK-MEL-2 melanoma
HT29 colon = system: HT29 colon
DMS 273 small cell lung = system: DMS 273 small cell lung
SK-OV-3 ovarian = system: SK-OV-3 ovarian
NCI-H226 lung = system: NCI-H226 lung
SNB-75 CNS = system: SNB-75 CNS
COLO 205 colon = system: COLO 205 colon
IGROV1 ovarian = system: IGROV1 ovarian
U251 CNS = system: U251 CNS
HOP-62 NSCLC = system: HOP-62 NSCLC
NCI-H23 lung = system: NCI-H23 lung
MALME-3M melanoma = system: MALME-3M melanoma
MOLT-4 leukemia = system: MOLT-4 leukemia
SW-620 colon = system: SW-620 colon
ACHN renal = system: ACHN renal
UACC-257 melanoma = system: UACC-257 melanoma
OVCAR-5 ovarian = system: OVCAR-5 ovarian
OVCAR-4 ovarian = system: OVCAR-4 ovarian
SNB-19 CNS = system: SNB-19 CNS
M14 melanoma = system: M14 melanoma
NCI-H460 lung = system: NCI-H460 lung
A498 renal = system: A498 renal
KM20L2 colon = system: KM20L2 colon
CCRF-CEM leukemia = system: CCRF-CEM leukemia
HOP-92 NSCLC = system: HOP-92 NSCLC
SK-MEL-5 melanoma = system: SK-MEL-5 melanoma
RXF 393 renal = system: RXF 393 renal
EKVX NSCLC = system: EKVX NSCLC
K-562 leukemia = system: K-562 leukemia
HOP-18 NSCLC = system: HOP-18 NSCLC
LXFL 529 NSCLC = system: LXFL 529 NSCLC
SF-295 CNS = system: SF-295 CNS
A549 NSCLC = system: A549 NSCLC
HCT-116 colon = system: HCT-116 colon
M19-MEL melanoma = system: M19-MEL melanoma
KM12 colon = system: KM12 colon
HCT-15 colon = system: HCT-15 colon
OVCAR-3 ovarian = system: OVCAR-3 ovarian
OVCAR-8 ovarian = system: OVCAR-8 ovarian
UACC-62 melanoma = system: UACC-62 melanoma
HL-60(TB) leukemia = system: HL-60(TB) leukemia
SF-539 CNS = system: SF-539 CNS
UO-31 renal = system: UO-31 renal
SK-MEL-28 melanoma = system: SK-MEL-28 melanoma
DLD-1 colon = system: DLD-1 colon
RXF-631 renal = system: RXF-631 renal
DMS 114 small cell lung = system: DMS 114 small cell lung
SF-268 CNS = system: SF-268 CNS
SNB-78 CNS = system: SNB-78 CNS
786-0 renal = system: 786-0 renal
NCI-H522 lung = system: NCI-H522 lung
LOX IMVI melanoma = system: LOX IMVI melanoma
SN12C renal = system: SN12C renal
HCC-2998 colon = system: HCC-2998 colon
CAKI-1 renal = system: CAKI-1 renal
TK-10 renal = system: TK-10 renal
RPMI-8226 leukemia = system: RPMI-8226 leukemia
XF 498 CNS = system: XF 498 CNS

SMILES: O=C1CCC(c2nc3cc(Cl)ccc3o2)C(=O)N1 (stereo not given)
- TGI (SR leukemia): > 100 µM
- TGI (SK-MEL-2 melanoma): > 100 µM
- TGI (HT29 colon): > 100 µM
- TGI (DMS 273 small cell lung): > 100 µM
- TGI (SK-OV-3 ovarian): > 100 µM
- TGI (NCI-H226 lung): > 100 µM
- TGI (SNB-75 CNS): > 100 µM
- TGI (COLO 205 colon): > 100 µM
- TGI (IGROV1 ovarian): > 100 µM
- TGI (U251 CNS): > 100 µM
- TGI (HOP-62 NSCLC): > 100 µM
- TGI (NCI-H23 lung): > 100 µM
- TGI (MALME-3M melanoma): > 100 µM
- TGI (MOLT-4 leukemia): > 100 µM
- TGI (SW-620 colon): > 100 µM
- TGI (ACHN renal): > 100 µM
- TGI (UACC-257 melanoma): > 100 µM
- TGI (OVCAR-5 ovarian): > 100 µM
- TGI (OVCAR-4 ovarian): > 100 µM
- TGI (SNB-19 CNS): > 100 µM
- TGI (M14 melanoma): > 100 µM
- TGI (NCI-H460 lung): > 100 µM
- TGI (A498 renal): > 100 µM
- TGI (KM20L2 colon): > 100 µM
- TGI (CCRF-CEM leukemia): > 100 µM
- TGI (HOP-92 NSCLC): > 100 µM
- TGI (SK-MEL-5 melanoma): > 100 µM
- TGI (RXF 393 renal): > 100 µM
- TGI (EKVX NSCLC): > 100 µM
- TGI (K-562 leukemia): > 100 µM
- TGI (HOP-18 NSCLC): > 100 µM
- TGI (LXFL 529 NSCLC): > 100 µM
- TGI (SF-295 CNS): > 100 µM
- TGI (A549 NSCLC): > 100 µM
- TGI (HCT-116 colon): > 100 µM
- TGI (M19-MEL melanoma): > 100 µM
- TGI (KM12 colon): > 100 µM
- TGI (HCT-15 colon): > 100 µM
- TGI (OVCAR-3 ovarian): > 100 µM
- TGI (OVCAR-8 ovarian): > 100 µM
- TGI (UACC-62 melanoma): > 100 µM
- TGI (HL-60(TB) leukemia): > 100 µM
- TGI (SF-539 CNS): > 100 µM
- TGI (UO-31 renal): > 100 µM
- TGI (SK-MEL-28 melanoma): > 100 µM
- TGI (DLD-1 colon): > 100 µM
- TGI (RXF-631 renal): > 100 µM
- TGI (DMS 114 small cell lung): > 100 µM
- TGI (SF-268 CNS): > 100 µM
- TGI (SNB-78 CNS): > 100 µM
- TGI (786-0 renal): > 100 µM
- TGI (NCI-H522 lung): > 100 µM
- TGI (LOX IMVI melanoma): > 100 µM
- TGI (SN12C renal): > 100 µM
- TGI (HCC-2998 colon): > 100 µM
- TGI (CAKI-1 renal): > 100 µM
- TGI (TK-10 renal): > 100 µM

SMILES: COC(=O)CCC1(NS(=O)(=O)c2ccc(C)cc2)CCC(C(C)(C)C)CC1 (stereo not given)
- TGI (SK-MEL-2 melanoma): 33.5 µM
- TGI (HT29 colon): 31.8 µM
- TGI (DMS 273 small cell lung): 31.2 µM
- TGI (SK-OV-3 ovarian): > 100 µM
- TGI (SNB-75 CNS): 41.2 µM
- TGI (COLO 205 colon): 26.8 µM
- TGI (IGROV1 ovarian): 41.7 µM
- TGI (U251 CNS): 29 µM
- TGI (HOP-62 NSCLC): 36.1 µM
- TGI (NCI-H23 lung): 29.2 µM
- TGI (MALME-3M melanoma): 35.4 µM
- TGI (MOLT-4 leukemia): 25.2 µM
- TGI (SW-620 colon): 37.3 µM
- TGI (UACC-257 melanoma): 24.7 µM
- TGI (OVCAR-5 ovarian): 32.8 µM
- TGI (OVCAR-4 ovarian): 32.1 µM
- TGI (SNB-19 CNS): 35.6 µM
- TGI (M14 melanoma): 33.7 µM
- TGI (NCI-H460 lung): 92 µM
- TGI (A498 renal): 28.8 µM
- TGI (CCRF-CEM leukemia): 37 µM
- TGI (RPMI-8226 leukemia): 21.4 µM
- TGI (HOP-92 NSCLC): 27.1 µM
- TGI (SK-MEL-5 melanoma): 19.3 µM
- TGI (K-562 leukemia): 33.7 µM
- TGI (LXFL 529 NSCLC): 68.3 µM
- TGI (SF-295 CNS): 26.5 µM
- TGI (A549 NSCLC): 73.4 µM
- TGI (HCT-116 colon): 22.2 µM
- TGI (M19-MEL melanoma): 25.2 µM
- TGI (KM12 colon): 44.7 µM
- TGI (OVCAR-3 ovarian): 23.2 µM
- TGI (OVCAR-8 ovarian): 40.7 µM
- TGI (UACC-62 melanoma): 26.4 µM
- TGI (HL-60(TB) leukemia): 11.8 µM
- TGI (SF-539 CNS): 26.2 µM
- TGI (UO-31 renal): 16 µM
- TGI (SK-MEL-28 melanoma): 25.3 µM
- TGI (DLD-1 colon): 65.9 µM
- TGI (RXF-631 renal): 45.2 µM
- TGI (DMS 114 small cell lung): 20.3 µM
- TGI (SNB-78 CNS): 67.2 µM
- TGI (786-0 renal): 29 µM
- TGI (NCI-H522 lung): 21.3 µM
- TGI (LOX IMVI melanoma): 38 µM
- TGI (SN12C renal): 28.5 µM
- TGI (XF 498 CNS): 30.7 µM
- TGI (HCC-2998 colon): 30.3 µM
- TGI (CAKI-1 renal): 27.3 µM
- TGI (TK-10 renal): 65.4 µM

SMILES: Cc1cc(C)nc(NS(=O)(=O)c2ccc(NC(=O)c3ccc(Cl)c4c(Nc5ccc(S(=O)(=O)Nc6cc(C)on6)cc5)c5ccccc5nc34)cc2)n1
- TGI (HT29 colon): 35.8 µM
- TGI (DMS 273 small cell lung): 31.9 µM
- TGI (SK-OV-3 ovarian): 35.9 µM
- TGI (NCI-H226 lung): 32.9 µM
- TGI (COLO 205 colon): 32.3 µM
- TGI (IGROV1 ovarian): 37.3 µM
- TGI (U251 CNS): 28.9 µM
- TGI (HOP-62 NSCLC): 30.6 µM
- TGI (NCI-H23 lung): 29.7 µM
- TGI (MALME-3M melanoma): 40 µM
- TGI (MOLT-4 leukemia): 70.9 µM
- TGI (SW-620 colon): 33.1 µM
- TGI (ACHN renal): 36.1 µM
- TGI (UACC-257 melanoma): 32.2 µM
- TGI (OVCAR-5 ovarian): 35.7 µM
- TGI (OVCAR-4 ovarian): 30.7 µM
- TGI (SNB-19 CNS): 30.8 µM
- TGI (M14 melanoma): 36.3 µM
- TGI (NCI-H460 lung): 36.3 µM
- TGI (A498 renal): 29.1 µM
- TGI (KM20L2 colon): 32.6 µM
- TGI (RPMI-8226 leukemia): 50.3 µM
- TGI (HOP-92 NSCLC): 30.3 µM
- TGI (SK-MEL-5 melanoma): 30 µM
- TGI (RXF 393 renal): 28 µM
- TGI (EKVX NSCLC): 33.9 µM
- TGI (K-562 leukemia): 68.5 µM
- TGI (HOP-18 NSCLC): 29.2 µM
- TGI (LXFL 529 NSCLC): 30.7 µM
- TGI (SF-295 CNS): 32.7 µM
- TGI (A549 NSCLC): 40.7 µM
- TGI (HCT-116 colon): 39.9 µM
- TGI (M19-MEL melanoma): 39.7 µM
- TGI (KM12 colon): 33.7 µM
- TGI (OVCAR-3 ovarian): 30.4 µM
- TGI (OVCAR-8 ovarian): 30.9 µM
- TGI (UACC-62 melanoma): 32.3 µM
- TGI (HL-60(TB) leukemia): 27.2 µM
- TGI (SF-539 CNS): 34.6 µM
- TGI (UO-31 renal): 31.7 µM
- TGI (SK-MEL-28 melanoma): 32.9 µM
- TGI (DLD-1 colon): 31.6 µM
- TGI (RXF-631 renal): 33.7 µM
- TGI (DMS 114 small cell lung): 32.6 µM
- TGI (SF-268 CNS): 28.9 µM
- TGI (SNB-78 CNS): 37.2 µM
- TGI (786-0 renal): 30.9 µM
- TGI (NCI-H522 lung): 31.8 µM
- TGI (LOX IMVI melanoma): 30 µM
- TGI (SN12C renal): 36.5 µM
- TGI (HCC-2998 colon): 33 µM
- TGI (CAKI-1 renal): 29.5 µM
- TGI (TK-10 renal): 32.3 µM
